Patent publication US20210171912A1, “METHOD FOR SCALABLE SKELETAL MUSCLE LINEAGE SPECIFICATION AND CULTIVATION” (Memphis Meats, Inc., priority 2013, published 2021)

Experiments:
[1] = tested on: undifferentiated 02KM; experiment: Tolerance of undifferentiated 02KM to 5AC; type: cell-based, porcine
Procedure: 5AC effects. 5AC exposure prior to, during, and following E2-mediated induction of ‘MyoDER’ was introduced to enable terminal-differentiation of 02KM from myocytes into refractive, filamentous myotubes. The murine C2C12 cell line was used as positive control to screen for optimal conditions for terminal differentiation by 02KM. […] 5AC, a small-molecule epigenetic modulator, was determined previously to enable skeletal muscle transcription in cell lines non-permissive to myogenesis. Moreover, 5AC exposure was further determined to enhance terminal differentiation by the C2C12 cell line.

[2] = tested on: 02KM cell line
Procedure: Terminal Differentiation. […] N-2 and B-27 supplements were used exclusively as serum replacements. Cultures were differentiated for up to 6 d following under 20% O2 following induction regimens (FIG. 20A).
MyoDER was detected with an antibody raised against a MyoD peptide. […] Determinants of MYF5 activation: Western blot analyses. […] MYODER-modified piPSC were cultured 3 days in self-renewal or expansion milieu. […] TUBA is detected as an internal protein loading control.
Terminal Myogenesis of Lineage-Specified piPSC. […] DO and D6 cultures were stained for myosin heavy chain (MyHC) isoforms with a pan-MyHC monoclonal antibody, clone MF20. […] Right panel: myonuclei distribution by myotube ploidy by propidium iodide labeling and flow cytometry analysis. n=3 with standard deviation shown. […] MyoD (MYOD1), myogenin (MYOG) and desmin (DES) expression, dO-d8. TUBA is detected as an internal protein loading control. […] FIG. 20G: Transmission Electron Microscopy, d6 myotubes.

[3] = tested on: CTNNB1; experiment: Western blot of CTNNB1 and p-CTNNB1 in differentiating 02K; type: cell-based, porcine; conditions: 24 h differentiation milieu transition
Procedure: Cultures were exposed to 50 nM Calyculin A and 30 μM MG-132 for 3 hours prior to harvest to stabilize detectable levels of p-CTNNB1 for comparative analysis.
(§1) CHIR99021 inhibition 1 cell death. […] 1. As CHIR99021 repressed cell death, supported differentiation toward paraxial mesoderm by the differentiating 02K cell line and enhanced terminal differentiation by the C2C12 cell line, precedent was established to retain the compound in all culture stages.
(§2) CHIR99021 stabilizes CTNNB1 and supports differentiation from the ground state. […] TUBA detected as an internal protein loading control. FIG. 13A indicates ratios of p-CTNNB1/CTNNB1 bands. FIG. 13B indicates ratios of CTNNB1/TUBA bands. […] TUBA detection is shown as an internal protein loading control.

[4] = tested on: 02K cell line; experiment: Differentiation marker Western blot (PAX3, POU5F1, KLF4) in differentiating 02K; type: cell-based, porcine; conditions: CHIR99021 supplemented basal medium, absence of DOX
Excerpt: Expression levels of pluripotency markers, POU5F1 and KLF4, and the pre-myogenic paraxial mesoderm marker PAX3 in 02K cultures differentiated from the ground state in the presence of CHIR99021.
as §1, §2

[5] = tested on: murine C2C12 myoblast; experiment: Terminal differentiation of C2C12 myoblasts scored by size and extent of myotube formation; type: cell-based; conditions: low-mitogen differentiation cultures (2% horse serum/DMEM)
[6] = tested on: 02K cell line; experiment: Cell survival of differentiating 02K (phase contrast, cell adhesion, CPP32 cleavage, Annexin V); type: cell-based, porcine; conditions: SRM basal medium without hLIF, DOX, PD032591 and PD173074; N-2 and B-27
Procedure: Without being bound by theory or limited by any specific representative example, it was observed that simultaneous withdrawal of both DOX and the GSK3P inhibitor CHIR99021 from the culture medium supplemented with N-2 and B-27 serum replacements precipitates massive cell death of differentiating 02K parental line within 48 h hours. Withdrawal of DOX in the presence of CHIR99021 enabled survival of the differentiating 02K. Death by differentiating 02K cells in the absence of a GSK3P inhibitor and reciprocal survival in the presence thereof was confirmed by morphology, cell adhesion assay, cleaved caspase-3 accumulation, and Annexin V labeling. […] WNT signaling plays crucial roles in both mesoderm specification from the undifferentiated ground-state pluripotency, pre-myogenic enrichment from unpatterned mesoderm and terminal differentiation of committed myocytes both in vivo and in vitro. In agreement, extended culture of the 02K line in the absence of DOX, and in the presence of a GSK3P inhibitor, supported differentiation toward the pre-myogenic paraxial mesoderm, as evidenced by the expression of PAX3 and concomitant loss of POU5F1 and KLF4 expression.
CHIR99021 inhibition 1 cell death. […] 1. […]
An axis of apoptosis and differentiation is modulated by CHIR99021. […] TUBA is detected an internal protein loading control.

[7] = tested on: 02KM cells (MyoDER); experiment: 02KM myogenic induction by E2 activation of MyoDER; type: cell-based, porcine; conditions: 10 μM E2, 2 d induction
Procedure: 02KM myogenic induction. 02KM cells were seeded onto culture dishes coated with poly-D lysine, murine laminin and [sequence] at a density of 4.1×10^3 cells/cm^2 and cultured under 5% O2 in self-renewal medium for 3 d.

[8] = tested on: piPSC-derived myotubes; experiment: Calcium transient activity (Fluo-4 AM) in piPSC-derived myotubes; type: cell-based, porcine; conditions: 10 mM caffeine; d6 myotubes; field of view
Excerpt: Spontaneous and Stimuli-Induced Calcium Transient Activity in piPSC-derived myotubes. To quantify contraction cycles, myotube cultures were stained with Fluo-4 AM calcium dye, washed, and image sequences were captured by confocal microscopy. Dynamic signaling events of an entire field of view (FOV) or single cells were traced and plotted over the imaging course. [s]=seconds.

Nc1ncn([C@@H]2O[C@H](CO)[C@@H](O)[C@H]2O)c(=O)n1 [5AC, 5-Aza-Cytidine]
highest dose tolerated [1]: 250 nM
MYF5 expression in 02KM derived myocytes ([2]; 5AC 72 hours preceding DOX withdrawal and 48 hours during E2 induction): MYF5 expression was enhanced
myotube morphology during terminal differentiation ([2]; 5AC during expansion and induction regimens): formed refractive, anisotropic myotubes

Cc1c[nH]c(-c2cnc(NCCNc3ccc(C#N)cn3)nc2-c2ccc(Cl)cc2Cl)n1 [CHIR99021]
CTNNB1 stabilization and phosphorylation status [3]: stabilizes and modulates the phosphorylation status of the GSK3P substrate, CTNNB1
pre-myogenic paraxial mesoderm lineage specification (PAX3 expression) [4]: supported pre-myogenic paraxial mesoderm lineage specification of differentiating 02K
terminal differentiation of C2C12 into multi-nucleated myotubes [5]: enhanced the terminal differentiation of the myogenic murine C2C12 cell line into multi-nucleated myotubes
cell survival during differentiation [6]: supported both cell survival during differentiation

C[C@]12CC[C@@H]3c4ccc(O)cc4CC[C@H]3[C@@H]1CC[C@@H]2O [E2, 17-β Estradiol]
myogenic lineage specification (spindle-like morphology, MYOG, NCAM) [7]: myogenic lineage specification following 2 d induction culture was confirmed

Cn1c(=O)c2c(ncn2C)n(C)c1=O [caffeine]
calcium transient activation [8]: FOV calcium transient activation of d6 myotubes
